Reference: patent publication US8871934B2, “Fluorene compound and pharmaceutical use thereof” (Japan Tobacco Inc., priority 2008, dated 2014)
Like-named read-outs stand apart in the source and are kept apart here.

Biological target: human PDHK2 (hPDHK2) (Homo sapiens (Human), UniProt Q15119)
Test: Inhibitory action of PDHK activity in vitro (kinase reaction, residual PDH activity measured)
Assay type: biochemical
Description: In the case of human PDHK2 (hPDHK2, Genbank Accession No. NM_002611), modified hPDHK2 cDNA wherein FLAG-Tag sequence is added to the N terminal by a polymerase linkage reaction was prepared based on hPDHK2 cDNA clone (pReceiver-M01/PDK2-GeneCopoeia), and cloned into a vector (pET17b-Novagen). The recombinant construct was transformed into Escherichia coli (DH5α-TOYOBO). The recombinant clones were identified, plasmid DNA was isolated and subjected to the DNA sequence analysis. One clone which had the expected nucleic acid sequence was selected for expression work.
During the assay, the hPDHK2 enzyme concentration was set to the minimal concentration at which PDH is inhibited the most.
0.05 U/mL PDH (porcine heart PDH complex, Sigma P7032) and 1.6 μg/mL hPDHK2 were mixed in a buffer (50 mmol/L 3-morpholinopropanesulfonic acid (pH 7.0), 20 mmol/L dipotassium hydrogen phosphate, 60 mmol/L potassium chloride, 2 mmol/L magnesium chloride, 0.4 mmol/L EDTA, and 0.2% Pluronic F-68, 2 mmol/L dithiothreitol), the mixture was incubated at 4° C. overnight to give PDH/hPDHK2 complex. The test compound was diluted with dimethyl sulfoxide (DMSO). PDH/hPDHK2 complex (20 μL), test compound (1.5 μL) and 3.53 μmol/L ATP (diluted with buffer, 8.5 μL) were added to a half area 96 well UV-transparent microplate (Corning 3679), and PDHK reaction was performed at room temperature for 45 min. Instead of the test compound, DMSO (1.5 μL) was added to a control well. DMSO (1.5 μL) was added instead of the test compound to a blank well for the measurement of the maximum rate of PDH reaction, and hPDHK2 was not added. Than, 10 μL of substrates (5 mmol/L sodium pyruvate, 5 mmol/L Coenzyme A, 12 mmol/L NAD, and 5 mmol/L thiamine pyrophosphate, diluted with buffer) was added. The mixture was incubated at room temperature for 90 min, and the residual PDH activity was measured. The absorbance at 340 nm before and after PDH reaction was measured on a microplate reader to detect NADH produced by the PDH reaction. The PDHK inhibitory rate (%) of the test compound was calculated from the formula [{(PDH activity of test compound—PDH activity of control)/PDH activity of blank—PDH activity of control)}×100]. The IC50 value was calculated from the concentrations of the test compound at two points enclosing 50% inhibition of the PDHK activity.

[1] = read-out: PDHK inhibitory activity IC50
[2] = PDHK inhibitory activity, class symbol of IC50
[3] = PDHK inhibitory activity (class symbol)

For `Cc1cc(C(=O)N2CCC2)cc2c1-c1ccccc1C2(O)C(F)(F)F` (single isomer, unassigned) [compound 135], the IC50 (class symbol of IC50, read-out: PDHK inhibitory activity) was greater than 1000 nM and the IC50 [1] was greater than 1000 nM.

For `Cc1cc(C(=O)N2CCC2)cc2c1-c1ccccc1C2(O)C(F)(F)F` (single isomer, unassigned) [compound 136], the IC50 [2] was less than 100 nM and the IC50 [1] was 25 nM.

`Cc1cc(C(=O)N2CC(OCCO)C2)cc2c1-c1ccccc1C2(O)C(F)(F)F` (single isomer, unassigned) [compound 152] gave an IC50 [2] of less than 100 nM and an IC50 [1] of 54 nM.

`COC(=O)COc1cc(Br)c2c(c1)C(O)(C(F)(F)F)c1ccccc1-2` (single isomer, unassigned) [compound 451, (4-bromo-9-hydroxy-9-trifluoromethyl-9H-fluoren-2-yloxy)-acetic acid methyl ester] was tested, and the IC50 [2] was 100 to 1000 nM and the IC50 [1] was 102 nM.

`COC(=O)COc1cc(Br)c2c(c1)C(O)(C(F)(F)F)c1ccccc1-2` (single isomer, unassigned) [compound 452] was tested, and the IC50 [2] was greater than 1000 nM and the IC50 [1] was 2720 nM.

With `Cn1cc(-c2cc(OCC(N)=O)cc3c2-c2ccccc2C3(O)C(F)(F)F)cn1` (single isomer, unassigned) [compound 467] the IC50 [2] was less than 100 nM and the IC50 [1] was 18 nM.

Molecule `COC(=O)c1cc(Br)c2c(c1)C(O)(C(F)(F)F)c1ccccc1-2` (single isomer, unassigned) [compound 473] has an IC50 [2] of less than 100 nM and an IC50 [1] of 90 nM.

`Cn1cc(-c2cc(OCC(=O)N3CC(CO)C3)cc3c2-c2ccccc2C3(O)C(F)(F)F)cn1` (single isomer, unassigned) [compound 474] showed an IC50 [2] of less than 100 nM and an IC50 [1] of 19 nM.

For `Cn1cc(-c2cc(OCC(=O)N3CC(O)C3)cc3c2-c2ccccc2C3(O)C(F)(F)F)cn1` (single isomer, unassigned) [compound 475], the IC50 [2] was less than 100 nM and the IC50 [1] was 20 nM.

With `NC(=O)COc1cc(-c2cnn(CCO)c2)c2c(c1)C(O)(C(F)(F)F)c1ccccc1-2` (single isomer, unassigned) [compound 477] the IC50 [2] was less than 100 nM and the IC50 [1] was 18 nM.

Molecule `O=C(O)CCCOc1cc(Cl)c2c(c1)C(O)(C(F)(F)F)c1ccccc1-2` (single isomer, unassigned) [compound 479] has an IC50 [2] greater than 1000 nM and an IC50 [1] greater than 10000 nM.

In the case of `COC(=O)COc1cc(Cl)c2c(c1)C(O)(C(F)(F)F)c1ccccc1-2` (single isomer, unassigned) [compound 481, (4-chloro-9-hydroxy-9-trifluoromethyl-9H-fluoren-2-yloxy)-acetic acid methyl ester], the IC50 [2] is reported as 100 to 1000 nM and the IC50 [1] is reported as 251 nM.

`Cn1cc(-c2cc(OCCCC(=O)O)cc3c2-c2ccccc2C3(O)C(F)(F)F)cn1` (single isomer, unassigned) [compound 504, 4-[9-hydroxy-4-(1-methyl-1H-pyrazol-4-yl)-9-trifluoromethyl-9H-fluoren-2-yloxy]-butyric acid] was tested, and the IC50 [2] was less than 100 nM and the IC50 [1] was 19 nM.

`Cn1cc(-c2cc(OCCC34CC5CC(CC(O)(C5)C3)C4)cc3c2-c2ccccc2C3(O)C(F)(F)F)cn1` (single isomer, unassigned) [compound 540] showed an IC50 [2] of less than 100 nM and an IC50 [1] of 16 nM.

With `NC(=O)Cn1cc(-c2cc(OCCC34CC5CC(CC(O)(C5)C3)C4)cc3c2-c2ccccc2C3(O)C(F)(F)F)cn1` (single isomer, unassigned) [compound 541] the IC50 [2] was less than 100 nM and the IC50 [1] was 15 nM.

Molecule `OCCn1cc(-c2cc(OCCC34CC5CC(CC(O)(C5)C3)C4)cc3c2-c2ccccc2C3(O)C(F)(F)F)cn1` (single isomer, unassigned) [compound 542] has an IC50 [2] of less than 100 nM and an IC50 [1] of 15 nM.

Work on `Cn1cc(-c2cc(OCCCCC(=O)O)cc3c2-c2ccccc2C3(O)C(F)(F)F)cn1` (single isomer, unassigned) [compound 552] yielded an IC50 [2] of less than 100 nM and an IC50 [1] of 17 nM.

For `CC(C)n1cc(-c2cc(OCCCC(=O)O)cc3c2-c2ccccc2C3(O)C(F)(F)F)cn1` (single isomer, unassigned) [compound 553], the IC50 [2] was less than 100 nM and the IC50 [1] was 18 nM.

Molecule `CCn1cc(-c2cc(OCCCC(=O)O)cc3c2-c2ccccc2C3(O)C(F)(F)F)cn1` (single isomer, unassigned) [compound 554] has an IC50 [2] of less than 100 nM and an IC50 [1] of 20 nM.

`O=C(O)CCCOc1cc(-c2cccnc2)c2c(c1)C(O)(C(F)(F)F)c1ccccc1-2` (single isomer, unassigned) [compound 561] gave an IC50 [2] of less than 100 nM and an IC50 [1] of 50 nM.

`OC[C@@H](O)Cn1cc(-c2cc(F)cc3c2-c2ccccc2C3(O)C(F)(F)F)cn1` (single isomer, unassigned) [compound 565] was tested, and the IC50 [2] was less than 100 nM and the IC50 [1] was 18 nM.

Work on `OC[C@H](O)Cn1cc(-c2cc(F)cc3c2-c2ccccc2C3(O)C(F)(F)F)cn1` (single isomer, unassigned) [compound 566] yielded an IC50 [2] of less than 100 nM and an IC50 [1] of 21 nM.

In the case of `Cn1cc(-c2cc(OCCCc3nnn[nH]3)cc3c2-c2ccccc2C3(O)C(F)(F)F)cn1` (single isomer, unassigned) [compound 573], the IC50 [2] is reported as less than 100 nM and the IC50 [1] is reported as 18 nM.

`Cc1cc(-c2cnn(C(C)(C)C(=O)O)c2)c2c(c1)C(O)(C(F)(F)F)c1ccccc1-2` (single isomer, unassigned) [compound 574] was tested, and the IC50 [2] was less than 100 nM and the IC50 [1] was 52 nM.

Molecule `Cc1cc(-c2cnn(CC(C)(C)C(=O)O)c2)c2c(c1)C(O)(C(F)(F)F)c1ccccc1-2` (single isomer, unassigned) [compound 575] has an IC50 [2] of less than 100 nM and an IC50 [1] of 36 nM.

`Cc1cc(-c2cnn(C(C)(C)CC(=O)O)c2)c2c(c1)C(O)(C(F)(F)F)c1ccccc1-2` (single isomer, unassigned) [compound 576] gave an IC50 [2] of less than 100 nM and an IC50 [1] of 30 nM.

`CC(CCOc1cc(-c2cnn(C)c2)c2c(c1)C(O)(C(F)(F)F)c1ccccc1-2)C(=O)O` (single isomer, unassigned) [compound 577] was tested, and the IC50 [2] was less than 100 nM and the IC50 [1] was 23 nM.

With `CCOc1cc(-c2cnn(CCC(=O)O)c2)c2c(c1)C(O)(C(F)(F)F)c1ccccc1-2` (single isomer, unassigned) [compound 581] the IC50 [2] was less than 100 nM and the IC50 [1] was 19 nM.

In the case of `CCOc1cc(-c2cnn(CCCC(=O)O)c2)c2c(c1)C(O)(C(F)(F)F)c1ccccc1-2` (single isomer, unassigned) [compound 582], the IC50 [2] is reported as less than 100 nM and the IC50 [1] is reported as 21 nM.

`COc1cc(-c2cnn(CCC(=O)O)c2)c2c(c1)C(O)(C(F)(F)F)c1ccccc1-2` (single isomer, unassigned) [compound 588] showed an IC50 [2] of less than 100 nM and an IC50 [1] of 29 nM.

`COc1cc(-c2cnn(CCCC(=O)O)c2)c2c(c1)C(O)(C(F)(F)F)c1ccccc1-2` (single isomer, unassigned) [compound 589] was tested, and the IC50 [2] was less than 100 nM and the IC50 [1] was 25 nM.

`O=C(O)CCCOc1cc(-c2cncnc2)c2c(c1)C(O)(C(F)(F)F)c1ccccc1-2` (single isomer, unassigned) [compound 604] gave an IC50 [3] of less than 100 nM and an IC50 [1] of 35 nM.

In the case of `Cc1cc(-c2cnn(C(CO)CO)c2)c2c(c1)C(O)(C(F)(F)F)c1ccccc1-2` (single isomer, unassigned) [compound 605], the IC50 [3] is reported as less than 100 nM and the IC50 [1] is reported as 19 nM.

Work on `Cc1cc(-c2cnn(CCCCC(=O)O)c2)c2c(c1)C(O)(C(F)(F)F)c1ccccc1-2` (single isomer, unassigned) [compound 606] yielded an IC50 [3] of less than 100 nM and an IC50 [1] of 28 nM.

`CC(C)(Cn1cc(-c2cc(F)cc3c2-c2ccccc2C3(O)C(F)(F)F)cn1)C(=O)O` (single isomer, unassigned) [compound 607] showed an IC50 [3] of less than 100 nM and an IC50 [1] of 45 nM.
